Experimental data reported in article PMC8719067 (Haematologica, 2021).

Columns and labels:
[1] = test system: B-cell lines or primary CLL cells; conditions: cited from earlier work
[2] = test system: chronic lymphocytic leukemia; conditions: patients with CLL, median of 3.4 years of follow-up; cited from earlier work
[3] = test system: MEC-1 cells overexpressing BTKWT; test: reverse-phase protein array; conditions: RPPA; for decrease in phospho-ERK: BTKWT cells
[4] = test system: MEC-1 cells with either wild-type or mutant BTK; test: reverse-phase protein array; conditions: RPPA
MEC-1 cells [5] = test: cell cycle profile; format: cell-based; conditions: MEC-1, 24 hours
MEC-1 cells [6] = test: cell death; format: cell-based; conditions: MEC-1, 1, 24 hours
B-cell malignancies = conditions: phase 1b clinical trial; cited from earlier work
[7] = test system: PLCg2 phosphorylation in Ramos Burkitt lymphoma cells; test: phospho-PLCg2 inhibition in the Ramos cell line; format: cell-based; conditions: Homo sapiens, read-out: IC50 of inhibition of PLCg2 phosphorylation
[8] = test system: BCR pathway in primary CLL cells; test: immunoblot of BCR pathway proteins in primary CLL cells; format: cell-based, human; conditions: BTKWT and BTKT474F (gate-keeper mutation)

SMILES: CC#CC(=O)N1CCC[C@H]1c1nc(-c2ccc(C(=O)Nc3ccccn3)cc2)c2c(N)nccn12 [acalabrutinib]
- cell death induced in vitro [1]: limited

SMILES: C=CC(=O)N1CCC[C@@H](n2nc(-c3ccc(Oc4ccccc4)cc3)c3c(N)ncnc32)C1 [ibrutinib, reference compound]
- cumulative incidence of progression [2]: 19%
- decrease in phospho-ERK [3]: 2 log
- cell death induced in vitro [1]: limited
- decrease in PD1 levels (ibrutinib vs vecabrutinib) [4]: larger decrease
- cell cycle profiles (MEC-1 cells [5]): did not alter
- cell death (MEC-1 cells [6]): 15-20%

SMILES: NC(=O)[C@H]1CCN(c2ncnc(N)c2F)C[C@@H]1N1CCC[C@@H](Nc2cc(Cl)cc(C(F)(F)F)c2)C1=O [vecabrutinib]
- tolerability (B-cell malignancies): well-tolerated
- decrease in phospho-ERK [3]: 2 log
- responses for all proteins compared to those to ibrutinib ([3]; WT cells): deeper or similar responses
- IC50 [7]: 13 ± 6 nM
- BCR pathway (phosphorylation of BTK, ERK, and S6) signaling [8]: inhibited
- S727 phosphorylation on STAT3 ([4]; WT and mutant cell lines): decreased
- Y705 phosphorylation on STAT3 ([4]; WT and mutant cell lines): decreased
- phospho-S6K ([4]; all three cell types, compared to ibrutinib): profoundly decreased
- cleaved caspase 7 ([4]; all transduced cell lines): increased
- cell cycle profiles (MEC-1 cells [5]): did not alter
- cell death (MEC-1 cells [6]): 15-20%
